Active and inactive are the calls of the source. The calls are words filed in the database; no cut-off is given here.
What was measured:
[1] = test system: Baculoviral IAP repeat-containing protein 2/Ataxin-7 (Homo sapiens), Q13490+O15265 [UNDEFINED MUTATION]; assay: Protac activity at C-IAP1/ataxin-7 mutant in fibroblasts derived from SCA7 patient assessed as reduction in mutant ataxin-7 expression at 10 uM after 24 hrs by Western blot analysis
[2] = test system: Baculoviral IAP repeat-containing protein 2/Atrophin-1 (Homo sapiens), Q13490+P54259 [UNDEFINED MUTATION]; assay: Protac activity at C-IAP1/atrophin-1 mutant in fibroblasts derived from DRPLA patient assessed as reduction in mutant atrophin-1 expression at 10 uM after 24 hrs by Western blot analysis
Chain of Baculoviral IAP repeat-containing protein 2/Atrophin-1 (Homo sapiens), Q13490+P54259 [UNDEFINED MUTATION] (P54259 whole entry, looked up, change not shown): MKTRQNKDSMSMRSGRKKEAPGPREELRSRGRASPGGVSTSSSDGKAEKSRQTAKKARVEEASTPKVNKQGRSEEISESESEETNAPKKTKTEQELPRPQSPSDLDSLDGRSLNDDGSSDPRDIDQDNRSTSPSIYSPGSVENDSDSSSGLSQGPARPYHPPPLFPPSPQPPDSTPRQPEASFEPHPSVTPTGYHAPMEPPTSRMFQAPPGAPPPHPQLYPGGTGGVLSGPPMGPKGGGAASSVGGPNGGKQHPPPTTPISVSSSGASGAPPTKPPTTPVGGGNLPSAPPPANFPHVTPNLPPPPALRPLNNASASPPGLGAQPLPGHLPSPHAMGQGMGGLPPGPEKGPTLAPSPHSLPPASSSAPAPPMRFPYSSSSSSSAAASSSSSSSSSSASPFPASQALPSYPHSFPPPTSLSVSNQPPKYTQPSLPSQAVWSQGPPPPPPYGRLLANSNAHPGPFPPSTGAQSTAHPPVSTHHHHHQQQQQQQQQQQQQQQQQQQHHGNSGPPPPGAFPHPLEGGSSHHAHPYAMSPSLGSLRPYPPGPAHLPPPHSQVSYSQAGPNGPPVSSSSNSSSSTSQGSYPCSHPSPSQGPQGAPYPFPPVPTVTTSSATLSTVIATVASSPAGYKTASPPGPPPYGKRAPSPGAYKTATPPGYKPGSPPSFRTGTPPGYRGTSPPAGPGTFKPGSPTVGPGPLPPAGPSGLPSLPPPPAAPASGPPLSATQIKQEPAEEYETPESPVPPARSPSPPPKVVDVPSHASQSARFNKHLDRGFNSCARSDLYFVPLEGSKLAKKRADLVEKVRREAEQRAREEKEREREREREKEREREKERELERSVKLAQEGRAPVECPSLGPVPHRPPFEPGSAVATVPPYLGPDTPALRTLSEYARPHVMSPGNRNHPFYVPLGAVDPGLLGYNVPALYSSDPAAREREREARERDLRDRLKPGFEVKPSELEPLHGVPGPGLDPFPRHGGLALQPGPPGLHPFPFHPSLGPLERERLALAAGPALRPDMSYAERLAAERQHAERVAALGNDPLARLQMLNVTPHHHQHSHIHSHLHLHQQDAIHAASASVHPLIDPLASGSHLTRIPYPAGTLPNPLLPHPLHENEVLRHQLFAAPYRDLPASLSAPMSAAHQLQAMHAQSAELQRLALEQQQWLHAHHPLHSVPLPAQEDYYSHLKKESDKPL
Chain of Baculoviral IAP repeat-containing protein 2/Atrophin-1 (Homo sapiens), Q13490+P54259 [UNDEFINED MUTATION] (Q13490 whole entry, looked up, change not shown): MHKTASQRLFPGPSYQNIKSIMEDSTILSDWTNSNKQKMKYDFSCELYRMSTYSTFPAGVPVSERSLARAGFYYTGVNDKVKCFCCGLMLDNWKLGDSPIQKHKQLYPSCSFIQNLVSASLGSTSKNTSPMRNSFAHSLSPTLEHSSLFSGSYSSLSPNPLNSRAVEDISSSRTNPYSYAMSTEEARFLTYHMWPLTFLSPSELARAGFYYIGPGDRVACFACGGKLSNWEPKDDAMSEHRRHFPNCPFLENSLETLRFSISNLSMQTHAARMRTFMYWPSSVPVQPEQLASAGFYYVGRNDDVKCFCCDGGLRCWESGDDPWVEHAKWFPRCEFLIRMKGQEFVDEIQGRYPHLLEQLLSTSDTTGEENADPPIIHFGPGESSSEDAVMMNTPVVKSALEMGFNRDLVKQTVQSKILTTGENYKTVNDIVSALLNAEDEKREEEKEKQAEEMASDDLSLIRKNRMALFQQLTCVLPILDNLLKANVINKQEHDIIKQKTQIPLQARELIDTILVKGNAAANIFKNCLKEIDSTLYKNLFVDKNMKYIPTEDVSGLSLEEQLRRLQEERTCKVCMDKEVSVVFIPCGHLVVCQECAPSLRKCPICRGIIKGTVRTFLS

[3] = test system: Baculoviral IAP repeat-containing protein 2/Ataxin-3 (Homo sapiens), Q13490+P54252 [UNDEFINED MUTATION]; assay: Protac activity at C-IAP1/Ataxin-3 mutant in fibroblasts derived from SCA3 patient assessed as reduction in mutant ataxin-3 expression after 24 to 48 hrs by Western blot analysis
Chain of Baculoviral IAP repeat-containing protein 2/Ataxin-3 (Homo sapiens), Q13490+P54252 [UNDEFINED MUTATION] (P54252 whole entry, looked up, change not shown): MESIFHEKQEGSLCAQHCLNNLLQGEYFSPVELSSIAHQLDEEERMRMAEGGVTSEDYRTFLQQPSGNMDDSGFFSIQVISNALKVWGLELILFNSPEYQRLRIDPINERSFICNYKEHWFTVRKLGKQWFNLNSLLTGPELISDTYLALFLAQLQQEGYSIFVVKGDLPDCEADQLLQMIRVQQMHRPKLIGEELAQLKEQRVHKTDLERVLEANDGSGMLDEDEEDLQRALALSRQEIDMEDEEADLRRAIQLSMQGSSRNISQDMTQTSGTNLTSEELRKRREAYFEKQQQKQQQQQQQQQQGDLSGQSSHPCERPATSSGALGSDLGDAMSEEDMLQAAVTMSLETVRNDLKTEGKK
Chain of Baculoviral IAP repeat-containing protein 2/Ataxin-3 (Homo sapiens), Q13490+P54252 [UNDEFINED MUTATION] (Q13490 whole entry, looked up, change not shown): as the sequence (Q13490 whole entry, looked up, change not shown) above

[4] = test system: Baculoviral IAP repeat-containing protein 2/Ataxin-7 (Homo sapiens), Q13490+O15265 [UNDEFINED MUTATION]; assay: Protac activity at C-IAP1/ataxin-7 mutant in fibroblasts derived from SCA7 patient assessed as reduction in mutant ataxin-7 expression after 24 to 48 hrs by Western blot analysis
[5] = test system: Baculoviral IAP repeat-containing protein 2/Atrophin-1 (Homo sapiens), Q13490+P54259 [UNDEFINED MUTATION]; assay: Protac activity at C-IAP1/atrophin-1 mutant in fibroblasts derived from DRPLA patient assessed as reduction in mutant atrophin-1 expression after 24 to 48 hrs by Western blot analysis
[6] = test system: Baculoviral IAP repeat-containing protein 2/Ataxin-3 (Homo sapiens), Q13490+P54252 [UNDEFINED MUTATION]; assay: Protac activity at C-IAP1/ataxin-3 mutant in fibroblasts derived from SCA3 patient assessed as reduction in mutant ataxin-3 expression at 10 uM by Western blot analysis; details: TDE = time-dependent effect
[7] = test system: Baculoviral IAP repeat-containing protein 2/Ataxin-7 (Homo sapiens), Q13490+O15265 [UNDEFINED MUTATION]; assay: Protac activity at C-IAP1/ataxin-7 mutant in fibroblasts derived from SCA7 patient assessed as reduction in mutant ataxin-7 expression at 10 uM by Western blot analysis; details: TDE = time-dependent effect
[8] = test system: Baculoviral IAP repeat-containing protein 2/Atrophin-1 (Homo sapiens), Q13490+P54259 [UNDEFINED MUTATION]; assay: Protac activity at C-IAP1/atrophin-1 mutant in fibroblasts derived from DRPLA patient assessed as reduction in mutant atrophin-1 expression at 10 uM by Western blot analysis; details: TDE = time-dependent effect
[9] = test system: Baculoviral IAP repeat-containing protein 2/Ataxin-7 (Homo sapiens), Q13490+O15265 [UNDEFINED MUTATION]; assay: Protac activity at C-IAP1/ataxin-7 mutant in fibroblasts derived from SCA7 patient assessed as reduction in mutant ataxin-7 expression at 10 uM after 24 hrs in presence of proteasome inhibitor MG132 by Western blot analysis
[10] = test system: Baculoviral IAP repeat-containing protein 2/Atrophin-1 (Homo sapiens), Q13490+P54259 [UNDEFINED MUTATION]; assay: Protac activity at C-IAP1/atrophin-1 mutant in fibroblasts derived from DRPLA patient assessed as reduction in mutant atrophin-1 expression at 10 uM after 24 hrs in presence of proteasome inhibitor MG132 by Western blot analysis
[11] = test system: Baculoviral IAP repeat-containing protein 2/Ataxin-7 (Homo sapiens), Q13490+O15265 [UNDEFINED MUTATION]; assay: Protac activity at C-IAP1/ataxin-7 mutant in fibroblasts derived from SCA7 patient assessed as reduction in mutant ataxin-7 expression at 10 uM after 24 hrs in presence of proteasome inhibitor epoxomicin by Western blot analysis
[12] = test system: Baculoviral IAP repeat-containing protein 2/Atrophin-1 (Homo sapiens), Q13490+P54259 [UNDEFINED MUTATION]; assay: Protac activity at C-IAP1/atrophin-1 mutant in fibroblasts derived from DRPLA patient assessed as reduction in mutant atrophin-1 expression at 10 uM after 24 hrs in presence of proteasome inhibitor epoxomicin by Western blot analysis

Chain of Baculoviral IAP repeat-containing protein 2/Ataxin-7 (Homo sapiens), Q13490+O15265 [UNDEFINED MUTATION] (O15265 whole entry, looked up, change not shown): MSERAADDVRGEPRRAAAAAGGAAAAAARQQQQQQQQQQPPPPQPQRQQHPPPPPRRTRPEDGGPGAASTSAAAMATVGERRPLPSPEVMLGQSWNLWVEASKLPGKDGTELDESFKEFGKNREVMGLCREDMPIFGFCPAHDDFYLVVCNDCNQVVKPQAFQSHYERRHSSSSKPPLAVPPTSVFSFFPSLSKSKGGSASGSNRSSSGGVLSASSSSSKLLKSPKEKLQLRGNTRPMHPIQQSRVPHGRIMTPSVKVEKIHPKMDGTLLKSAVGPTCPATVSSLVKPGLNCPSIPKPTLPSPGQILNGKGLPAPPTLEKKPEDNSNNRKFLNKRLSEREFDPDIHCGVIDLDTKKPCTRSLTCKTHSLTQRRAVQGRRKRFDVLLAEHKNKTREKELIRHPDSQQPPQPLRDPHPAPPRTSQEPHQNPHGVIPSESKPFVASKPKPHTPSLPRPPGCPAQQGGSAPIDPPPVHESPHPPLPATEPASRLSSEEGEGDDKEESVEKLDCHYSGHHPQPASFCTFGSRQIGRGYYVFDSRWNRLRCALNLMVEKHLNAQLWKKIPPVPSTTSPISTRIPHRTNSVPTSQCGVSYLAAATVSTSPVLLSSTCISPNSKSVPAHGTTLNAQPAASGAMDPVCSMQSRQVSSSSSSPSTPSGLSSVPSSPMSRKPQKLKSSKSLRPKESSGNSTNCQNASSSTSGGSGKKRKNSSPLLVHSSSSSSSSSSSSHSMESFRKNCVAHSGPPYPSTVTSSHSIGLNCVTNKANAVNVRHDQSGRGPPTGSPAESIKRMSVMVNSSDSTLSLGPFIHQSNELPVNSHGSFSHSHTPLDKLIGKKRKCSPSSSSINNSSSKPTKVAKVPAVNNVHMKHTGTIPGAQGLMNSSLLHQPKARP
Chain of Baculoviral IAP repeat-containing protein 2/Ataxin-7 (Homo sapiens), Q13490+O15265 [UNDEFINED MUTATION] (Q13490 whole entry, looked up, change not shown): as the sequence (Q13490 whole entry, looked up, change not shown) above

## CNC(=O)[C@H](CC(C)C)NC(=O)[C@@H](O)[C@H](N)Cc1ccccc1
[1]
  Activity: inactive
[2]
  Activity: inactive

## CC(C)C[C@H](NC(=O)[C@@H](O)[C@H](N)Cc1ccccc1)C(=O)NCCOCCOCCOc1ccc2nc(/N=N/c3ccc(N(C)C)cc3)sc2c1
[3]
  Activity: Dose-dependent effect
[4]
  Activity: Dose-dependent effect
[5]
  Activity: Dose-dependent effect
[6]
  Activity: Tde
[7]
  Activity: Tde
[8]
  Activity: Tde

## Cc1ccc2nc(-c3ccc(NCCOCCOCCNC(=O)[C@H](CC(C)C)NC(=O)[C@@H](O)[C@H](N)Cc4ccccc4)cc3)sc2c1
[3]
  Activity: Dose-dependent effect
[4]
  Activity: Dose-dependent effect
[5]
  Activity: Dose-dependent effect
[6]
  Activity: Tde
[7]
  Activity: Tde
[8]
  Activity: Tde
[1]
  Activity: Active
[2]
  Activity: Active
[9]
  Activity: inactive
[10]
  Activity: inactive
[11]
  Activity: inactive
[12]
  Activity: inactive

## CNc1ccc(-c2nc3ccc(C)cc3s2)cc1
[1]
  Activity: inactive
[2]
  Activity: inactive

From ChEMBL document CHEMBL4609994, “Application of protein knockdown strategy targeting β-sheet structure to multiple disease-associated polyglutamine proteins” (Bioorg Med Chem, 2020)
